Reference: patent US8481489B2, “GH secretagogues and uses thereof” (Theratechnologies Inc., priority 2003, dated 2013)
Where “and” joins values, the source holds several entries; their conditions need not be identical. Equal values may be shown once. Read-outs that look alike come from different tables or passages of the source. Marks after values point to notes of the source that are not given here.

How the values were obtained:
[1] = test system: HIV-infected patients with abdominal fat accumulation; details: for CD4, Δ: change from baseline, Week 12, mean (SD)
Experimental: (§3) Design: Randomized, placebo-controlled, multi-center, dose ranging (placebo, 1 mg or 2 mg SC QD), parallel group, 12-week study
(§4) Biochemical parameters including insulin-like growth factor-I, glucose, insulin, lipid profile (cholesterol, HDL, LDL, triglyceride, non HDL and the ratio of cholesterol:HDL), free fatty acids, HbA1C, IGFBP-3, and bone markers (serum osteocalcin and NTX-1), CD4, viral load, and a pregnancy test for female subjects were determined in the fasting state.
(§5) Clinical laboratory testing was performed by a central lab. […] NTX (N-terminal telopeptide of type I collagen; a bone resorption marker) was measured by ELISA using a commercially available kit (Osteomark™, Ostex International Inc., Seattle, Wash.). Osteocalcin was measured using a commercially available enzymatic immunoassay kit (Metra™ osteocalcin, Quidel Corporation, San Diego, Calif.). CD4 and viral load were performed by the individual site labs by routine methodology.

[2] = test system: IGF-1; test: IGF-1 levels in type II diabetic patients; type: in vivo, human; details: end of 12-week treatment period
Experimental: A double-blind placebo-controlled study was conducted in 53 type II diabetic patients (age=61±7 [SD]; 34% female) on stable antidiabetic medication (26% on insulin). Patients were randomized to parallel groups to receive daily subcutaneous administration of a placebo, 1 mg or 2 mg TH9507, respectively.

[3] = test system: HIV-infected patients with abdominal fat accumulation; test: Bone turnover markers (osteocalcin, NTX), HIV lipodystrophy study; details: for NTX, Δ / Osteocalcin, Δ: change from baseline, Week 12, mean (SD)
Experimental: as §3, §4, §5

[4] = test system: IGF-1 and IGFBP-3; test: Serum IGF-1 and IGFBP-3 (RIA), HIV lipodystrophy study; details: change from baseline, Week 12, mean (SD)
Experimental: as §3
(§6) At the baseline visit, anthropometric measurements were obtained. […] Biochemical parameters including insulin-like growth factor-I, glucose, insulin, lipid profile (cholesterol, HDL, LDL, triglyceride, non HDL and the ratio of cholesterol:HDL), free fatty acids, HbA1C, IGFBP-3, and bone markers (serum osteocalcin and NTX-1), CD4, viral load, and a pregnancy test for female subjects were determined in the fasting state. In addition, insulin and glucose response to a 75 gram standard glucose challenge were assessed and a quality of life questionnaire was administered.
(§7) Clinical laboratory testing was performed by a central lab. Serum IGF-1 was measured after acid-ethanol extraction using the Esoterix RIA kit (Esoterix Inc., Calabasas Hill, Calif.), with a sensitivity of 10 ng/mL. Intra- and inter-assay coefficients of variation were 4.6-20% and 9-10%, respectively. Serum IGFBP-3 was measured using the Esoterix RIA kit (Esoterix Inc., Calabasas Hill, Calif.) with a sensitivity of 0.3 mg/mL. Intra- and inter-assay coefficients of variation were 5.1-13% and 5.5-17%, respectively. HDL, LDL, total cholesterol, triglycerides and FFA were determined by enzymatic calorimetric assay. Glucose was measured by enzymatric test (Gluco-Quant®, Roche diagnostics, Indianapolis, Ind.). HbA1c was determined by chromatography.
(§8) Other endpoints included IGF-I, lipid parameters, glucose and insulin, CD4, viral load, bone markers, and quality of life. A sample size of 20 patients/group was planned to assess a statistically significant change of 10% or more in intra-group analyses. The planned dropout rate was 25% and therefore 60 patients were enrolled into the study. Baseline data are compared between the groups by F-test based on ANOVA for continuous variables and Chi-Square test for categorical variables. Change over time between groups is compared by ANOVA or the Chi-Square test. Where appropriate, data were rank transformed prior to analysis. Changes within each group are determined by t-test. The ITT (intent to treat) population is defined as all subjects who received at least one dose of the study treatment. Descriptive statistics and analyses for all efficacy and safety analyses are performed on the ITT population. End of study, 12 week, data are used to calculate changes in body composition. For biochemical indices, the last observation available is used to calculate change. Imputation for missing data is not performed. For body composition, end of study data are used to calculate change. Interim analyses were not performed. Results are mean (SD) unless otherwise noted. All statistical tests were performed with a two-sided Type I error level of 0.05.

[5] = test system: HIV-infected patients with abdominal fat accumulation; test: Lipid parameters, HIV lipodystrophy study; details: mean (SD); for Chol:HDL, Δ / HDL, Δ / LDL, Δ / NONHDL Cholesterol, Δ / Total Cholesterol, Δ / Triglycerides, Δ: change from baseline, Week 12; for Triglyceride levels change / ratio of cholesterol to HDL change: last observation values
Experimental: as §3, §6, §7, §8

[6] = test system: GH secretion; test: GH response and other pituitary hormones, 7-day study in healthy men; type: in vivo, human; details: dose dependent between 0.5 and 1 mg, similar at 1 and 2 mg
Experimental: The study used a randomized, double-blind, placebo-controlled design and was conducted in healthy men, aged 50 to 60 years old. Subjects (8 per group) were injected S.C. once a day for 7 consecutive days with placebo, 0.5, 1 or 2 mg of TH9507. Circulating IGF-1 levels were measured on Days 1 to 7. […]

[7] = test system: IGF-1; test: Mean IGF-1 values, influenza vaccination study; type: in vivo, human; details: 1 and 2 mg SC daily, whole 8-week treatment period
Experimental: (§1) Eighty seven (87) subjects aged 75 years in average were included in a double-bind, randomized, placebo-controlled study. TH9507 or a placebo was administered at a daily dose of 1 or 2 mg by subcutaneous injection for 8 weeks. Follow-up assessments were conducted for 12 weeks after the end of the treatment period. At week 4, in the middle of the treatment period, subjects received the commercial Canadian influenza vaccine (Vaccine Fluviral® S/F, Shire, Montreal, Canada) containing 15 μg each of A/New Caledonia/20/99, A/Panama/2007/99, B/Victoria/504/2000 antigens.
Values returned to baseline following cessation of treatment.

[8] = test system: IGF-1; details: daily 1 and 2 mg doses; reference (14); cited from earlier work
[9] = test system: IGF-1 and IGFBP-3; test: Circulating IGF-1 and IGFBP-3 levels, insomnia study; type: in vivo, human; details: week 2
[10] = test system: HIV-infected patients with abdominal fat accumulation; details: change from baseline, Week 12, mean (SD)
Experimental: as §3, §6, §7, §8

[11] = TH9507 PK profile, 7-day study in healthy men; type: in vivo, human
Experimental: (§2) The study used a randomized, double-blind, placebo-controlled design and was conducted in healthy men, aged 50 to 60 years old. Subjects (8 per group) were injected S.C. once a day for 7 consecutive days with placebo, 0.5, 1 or 2 mg of TH9507. Circulating IGF-1 levels were measured on Days 1 to 7. The 12 hour GH response and TH9507 PK profile were determined on Day 1 and 7.

[12] = type: in vivo, human; details: 1 or 2 mg SC daily, 8 weeks
Experimental: as §1

[13] = test system: antigen-specific proliferative T cell response; type: in vivo, human; details: 2 mg SC daily 8 weeks; week 0 to week 20; Panama, New Caledonia, Victoria
[14] = test system: A/New Caledonia/20/99, A/Panama/2007/99, B/Victoria/504/2000 antigens; test: Influenza antibody titers by hemaglutination inhibition assay in elderly subjects; type: in vivo, human
[15] = in vivo
[16] = Adverse events, discontinuation and safety laboratory, HIV lipodystrophy study
[17] = test system: IGF-1; test: Circulating IGF-1 levels, 7-day administration in healthy middle-aged men; type: in vivo, human; details: for IGF-1 increase over baseline values / IGF-1 levels reached: 7 days
Experimental: as §2

[18] = test system: HIV-infected patients with abdominal fat accumulation; test: Body composition by DEXA, HIV lipodystrophy study; details: for Fat Mass, Δ / Lean Body Mass, Δ / Limb Fat, Δ / Trunk Fat, Δ: change from baseline, Week 12, mean (SD)
Experimental: as §3
Patients: 61 HIV-infected patients (BMI 28±3 [SD] kg/m^2, 28% diabetic or glucose intolerant) with increased waist circumference (102 cm±8 [SD]) and waist/hip (1.0±0.1 [SD])
At the baseline visit, anthropometric measurements were obtained. Total body lean and fat mass as well as regional fat mass in the trunk and extremities were assessed by DEXA. Abdominal subcutaneous and visceral fat area and the ratio of VAT to SAT were determined by cross-sectional CT at L4-L5.
Whole body and regional DEXA (dual energy X-ray absorptiometry) and cross-sectional abdominal CT scans were performed at the individual study sites based on previously established protocols and were standardized across sites. Digitized images were sent to a central reading center, St. Lukes Roosevelt Hospital, for analysis by independent experts without knowledge of treatment assignment. Each site was given a procedure manual to follow in obtaining the body composition data and was certified in the proper technique. For the CT scans, parameters were standardized as follows: Tube Voltage=120 kV, Tube Current=250 mA, Exposure=375 mAs, matrix 512×512. DFOV was set to include the entire slice into the field of view. For the DEXA scans total body scans were performed with analysis of lean body mass, total fat mass, and regional fat mass in the trunk and extremities as previously described (16).
Body composition endpoints included trunk fat and trunk to limb fat ratio by DEXA and VAT and VAT:SAT by CT scan. […] Baseline data are compared between the groups by F-test based on ANOVA for continuous variables and Chi-Square test for categorical variables. Change over time between groups is compared by ANOVA or the Chi-Square test. Where appropriate, data were rank transformed prior to analysis. Changes within each group are determined by t-test. The ITT (intent to treat) population is defined as all subjects who received at least one dose of the study treatment. Descriptive statistics and analyses for all efficacy and safety analyses are performed on the ITT population. End of study, 12 week, data are used to calculate changes in body composition. […] Imputation for missing data is not performed. For body composition, end of study data are used to calculate change. […] Results are mean (SD) unless otherwise noted. All statistical tests were performed with a two-sided Type I error level of 0.05.

CC/C=C/CC(=O)N[C@@H](Cc1ccc(O)cc1)C(=O)N[C@@H](C)C(=O)N[C@@H](CC(=O)O)C(=O)N[C@@H](C)C(=O)N[C@H](C(=O)N[C@@H](Cc1ccccc1)C(=O)N[C@H](C(=O)N[C@@H](CC(N)=O)C(=O)N[C@@H](CO)C(=O)N[C@@H](Cc1ccc(O)cc1)C(=O)N[C@@H](CCCNC(=N)N)C(=O)N[C@@H](CCCCN)C(=O)N[C@H](C(=O)N[C@@H](CC(C)C)C(=O)NCC(=O)N[C@@H](CCC(N)=O)C(=O)N[C@@H](CC(C)C)C(=O)N[C@@H](CO)C(=O)N[C@@H](C)C(=O)N[C@@H](CCCNC(=N)N)C(=O)N[C@@H](CCCCN)C(=O)N[C@@H](CC(C)C)C(=O)N[C@@H](CC(C)C)C(=O)N[C@@H](CCC(N)=O)C(=O)N[C@@H](CC(=O)O)C(=O)N[C@H](C(=O)N[C@@H](CCSC)C(=O)N[C@@H](CO)C(=O)N[C@@H](CCCNC(=N)N)C(=O)N[C@@H](CCC(N)=O)C(=O)N[C@@H](CCC(N)=O)C(=O)NCC(=O)N[C@@H](CCC(=O)O)C(=O)N[C@@H](CO)C(=O)N[C@@H](CC(N)=O)C(=O)N[C@@H](CCC(N)=O)C(=O)N[C@@H](CCC(=O)O)C(=O)N[C@@H](CCCNC(=N)N)C(=O)NCC(=O)N[C@@H](C)C(=O)N[C@@H](CCCNC(=N)N)C(=O)N[C@@H](C)C(=O)N[C@@H](CCCNC(=N)N)C(=O)N[C@@H](CC(C)C)C(N)=O)[C@@H](C)CC)C(C)C)[C@@H](C)O)[C@@H](C)CC [TH9507, (hexenoyl trans-3)hGRF(1-44)NH2]
CD4, Δ ([1]; 1 mg SC QD): 24.4 (147.41) cells/mm^3
CD4, Δ ([1]; 2 mg SC QD): −23.2 (70.7) cells/mm^3
CD4 count and viral load ([1]; in vivo): did not change
IGF-1 levels [2]: dose-related increase
NTX, Δ ([3]; 1 mg SC QD): 4.5 (24.9) nMBCE/mM
Osteocalcin, Δ ([3]; 1 mg SC QD): 1.5 (4.8) ng/mL
NTX ([3]; 2 mg SC QD, 12 weeks): no changes
Osteocalcin within group ([3]; 2 mg SC QD, 12 weeks): increased significantly
NTX, Δ ([3]; 2 mg SC QD): −0.5 (27.7) nMBCE/mM
Osteocalcin, Δ ([3]; 2 mg SC QD): 3.0 (2.8)* ng/mL
IGF-1, Δ ([4]; 1 mg SC QD): 87 (67) ng/mL and 87.5 (66.9)* ng/mL
IGFBP-3, Δ ([4]; 1 mg SC QD): 0.6 (0.7)* Mg/L
IGF-1, Δ ([4]; 2 mg SC QD): 123 (79) ng/mL and 122.6 (79.1)* ng/mL
IGFBP-3, Δ ([4]; 2 mg SC QD): 0.6 (0.5)* Mg/L
Chol:HDL, Δ ([5]; 1 mg SC QD): −0.3 (0.6)
HDL, Δ ([5]; 1 mg SC QD): 0.0 (0.2) mmol/L
LDL, Δ ([5]; 1 mg SC QD): 0.1 (0.8) mmol/L
NONHDL Cholesterol, Δ ([5]; 1 mg SC QD): −0.4 (1.5) mmol/L
Total Cholesterol, Δ ([5]; 1 mg SC QD): −0.4 (1.7) mmol/L
Triglycerides, Δ ([5]; 1 mg SC QD): −1.1 (4.4) mEq/L
Triglyceride levels change ([5]; 1 mg SC QD): −0.9 (4.2)
ratio of cholesterol to HDL change ([5]; 1 mg SC QD): −0.3 (0.7)
Chol:HDL, Δ ([5]; 2 mg SC QD): −0.3 (0.7)
HDL, Δ ([5]; 2 mg SC QD): 0.1 (0.1)* mmol/L
LDL, Δ ([5]; 2 mg SC QD): 0.2 (0.7) mmol/L
NONHDL Cholesterol, Δ ([5]; 2 mg SC QD): −0.1 (0.7) mmol/L
Total Cholesterol, Δ ([5]; 2 mg SC QD): −0.1 (0.8) mmol/L
Triglycerides, Δ ([5]; 2 mg SC QD): −0.9 (1.3)* mEq/L
Triglyceride levels change ([5]; 2 mg SC QD): −0.9 (1.2)
ratio of cholesterol to HDL change ([5]; 2 mg SC QD): −0.3 (0.6)
GH response [6]: increased rapidly
mean IGF-1 values vs baseline [7]: dose-related increase
IGF-I [8]: increase IGF-I to the physiological range seen in younger adults
Circulating IGF-1 level vs placebo ([9]; 0.1 mg): did not affect
Circulating IGFBP-3 level vs placebo ([9]; 0.1 mg): did not affect
Circulating IGF-1 level vs placebo ([9]; 1 mg): significantly increased
Circulating IGFBP-3 level vs placebo ([9]; 1 mg): significantly increased
Fasting Glucose, Δ ([10]; 1 mg SC QD): 0.1 (0.5) mmol/L
Fasting Insulin, Δ ([10]; 1 mg SC QD): −2.8 (27.6) mUI/L
HBA1c, Δ ([10]; 1 mg SC QD): 0.2 (0.4)* %
HOMA-R, Δ ([10]; 1 mg SC QD): 0.8 (7.0)
Two hour glucose, Δ ([10]; 1 mg SC QD): 0.1 (2.1) mmol/L
Fasting Glucose, Δ ([10]; 2 mg SC QD): 0.1 (0.7) mmol/L
Fasting Insulin, Δ ([10]; 2 mg SC QD): 7.4 (6.2) mUI/L
HBA1c, Δ ([10]; 2 mg SC QD): −0.0 (0.5) %
HOMA-R, Δ ([10]; 2 mg SC QD): 2.0 (1.6)
Two hour glucose, Δ ([10]; 2 mg SC QD): 0.7 (1.7) mmol/L
Cmax and AUC parameters ([11]; 0.5, 1, 2 mg SC): increased in function of the dose administered
half-life ([11]; male, human, in vivo, SC, healthy men): 2 to 5 h
incidence of adverse events between treatment groups [12]: No major difference
incidence of reactions at the site of injection [12]: dose-related trend
mean AUC of antigen-specific proliferative T cell response vs placebo [13]: statistically higher
percentage of subjects with protective antibody level ([14]; Panama and New Caledonia strains): No statistical difference
proportion of patients achieving a protective antibody level vs placebo ([14]; Victoria antigen, statistically significant at 2 mg, weeks 6-20): increased
Anti-TH9507 antibodies [15]: not detected
Blood pressure and heart rate [15]: did not change
Safety laboratory values, including hemoglobin, WBC, LFT's, creatinine [15]: did not differ
Musculoskeletal AE's e.g. pain and arthralgias, subjects ([16]; 1 mg): 26%
Musculoskeletal AE's e.g. pain and arthralgias, subjects ([16]; 2 mg): 29%
IGF-1 increase over baseline values ([17]; 0.5 mg SC once a day): 37%
time at which IGF-1 plateau was reached ([17]; 1 mg): 4 days
IGF-1 increase over baseline values ([17]; 1 mg SC once a day): 89%
IGF-1 levels reached ([17]; 1 mg SC once a day): 286 ± 25 ng/mL
time at which IGF-1 plateau was reached ([17]; 2 mg): 6 days
IGF-1 increase over baseline values ([17]; 2 mg SC once a day): 106%
IGF-1 levels reached ([17]; 2 mg SC once a day): 284 ± 55 ng/mL
IGF-1 levels of individual subjects ([17]; none of the subjects greater than this level): ≤ 400 ng/mL
Trunk fat change ([18]; 1 mg SC QD, 12 weeks): −4.6%
Fat Mass, Δ ([18]; 1 mg SC QD): −0.4 (1.8) kg
Lean Body Mass, Δ ([18]; 1 mg SC QD): 0.7 (2.0) kg
Limb Fat, Δ ([18]; 1 mg SC QD): 0.1 (0.5) kg
Trunk Fat, Δ ([18]; 1 mg SC QD): −0.5 (1.4) kg
Trunk fat change ([18]; 2 mg SC QD, 12 weeks): −9.2%
Fat Mass, Δ ([18]; 2 mg SC QD): −1.4 (2.0) kg and −1.4 (2.0)* kg
Lean Body Mass, Δ ([18]; 2 mg SC QD): 1.7 (2.3) kg and 1.7 (2.3)* kg
Limb Fat, Δ ([18]; 2 mg SC QD): −0.3 (0.8) kg
Trunk Fat, Δ ([18]; 2 mg SC QD): −1.1 (1.3)* kg
limb fat ([18]; 1 and 2 mg SC QD, 12 weeks): no significant change
